Source: US12324855B2, “Method of safe administration of phosphorylated Tau peptide vaccine” (AC Immune SA, priority 2019, dated 2025)
Square brackets hold non-standard residues; d marks the D form. Ends that are not written are not given here. pS = N[C@@H](COP(=O)(O)O)C(=O)O

Tested on: CD4+ T-cell response in PBMCs from 51 human donors
Assay: EpiScreen time course T-cell proliferation and IL-2 ELISPOT assays (Example 6)
Type: cell-based
Details: 5 μM peptide, 51 donors; for donors responding, taking into account borderline responses and donors responding in only one of the two assays: SI≥1.90 borderline; for donors responding in both IL-2 ELISPOT and proliferation assays: SI≥2.00
Description: Two 16-mer peptides, Tau 393-408[pS396/pS404] (T3.5 having the amino acid sequence of SEQ ID NO:2) and Tau393-408 (T3.6 having the amino acid sequence of SEQ ID NO:4) were tested in EpiScreen™ time course T-cell assays for the capacity to induce CD4^+ T-cell response in 51 human donors.
EpiScreen™ Time Course T-cell Proliferation Assays and IL-2 ELISPOT Assays
PBMCs from 51 human donors were stimulated with either peptide at a final concentration of 5 μM. For each donor, a reproducibility control (cells incubated with 100 μg/mL KLH), a benchmark clinical control (cells incubated with 0.3 μM humanized A33) and a culture medium only well were also included. Proliferation and IL-2 production were evaluated after different time points.
For proliferation assays and IL-2 ELISPOT assays, an empirical threshold of a Stimulation Index (SI) equal to or greater than two (SI≥2.00) has been previously established whereby samples inducing responses above this threshold are deemed positive whereas SI≥1.90 were considered as borderline responders.
Previous EpiScreen™ time course T-cell assays with a range of biologics have shown a clear correlation between the percentage of donor T-cell responses in the EpiScreen™ assay and the level of immunogenicity observed in the clinic. In general, protein therapeutics that induce >10% positive responses in the EpiScreen™ assay are associated with a significant risk of immunogenicity in the clinic.

Substance	donors responding, taking into account borderline responses and donors responding in only one of the two assays [%]	donors responding in both IL-2 ELISPOT and proliferation assays [%]
VYKSPVVSGDTSPRHL (tau peptide) [Tau 393-408, 16-mer non-phosphorylated Tau peptide]	8	4
VYK[pS]PVVSGDT[pS]PRHL [Tau 393-408 [pS396/pS404]]	8	2
